Data as given in publication PMC4925161, “EssC: domain structures inform on the elusive translocation channel in the Type VII secretion system” (Biochemical Journal, 2016).

What was measured:
EssC-C [1] = target: T1, EssC-C (Geobacillus thermodenitrificans, UniProt A4IKE7); experiment: fluorescence titration (excitation […] nm, emission […] nm); assay type: binding; design: gene eccC; C-terminal fragment, residues 966-1479 (ATPase modules D2 and D3); N-terminal His6 tag removed with TEV; E. coli host
EssC-C [2] = target: T1, EssC-C; design: gene eccC; settings: D2 nucleotide site; ATP modelled in the second molecule (mant density ambiguous, crystal grown with mant-ATP); also present in SeMet structure without added nucleotide; displaces mant-ATP
[3] = target: the molecule itself; experiment: native gel or EMSA; blue native PAGE, linear 4-12% gradient native Bis-Tris gels; 8 ug purified EssC-C or 5 ug full-length EssC (DDM-solubilized) loaded; band identity by peptide mass fingerprinting

Q: For `CNc1ccccc1C(=O)O[C@H]1[C@@H](O)[C@H](n2cnc3c(N)ncnc32)O[C@@H]1CO[P@@](=O)(O)O[P@](=O)(O)OP(=O)(O)O` (mixture of isomers) [mant-ATP, 2′/3′-(N-methyl-anthraniloyl)-adenosine-5′-triphosphate], which Kd (EssC-C [1]) is on record?
A: Its Kd is 940 ± 110 nM.

Q: With `Nc1ncnc2c1ncn2[C@@H]1O[C@H](COP(=O)(O)OP(=O)(O)OP(=O)(O)O)[C@@H](O)[C@H]1O` [ATP] as the molecule, how does the “X-ray crystal structure (2.9 Å); displacement of mant-ATP fluorescence” value (EssC-C [2]) read?
A: Its value is “ATP was present in the nucleotide-binding site of the D2 module”.

B1: full-length membrane-bound EssC from Geobacillus thermodenitrificans NG80-2 (natural protein, UniProt A4IKE7 1-1479, looked up)
chain: MSQLWVLYETYCQLFSLTNEEKVIVIGNQLEHHVTVSSFSFRNGYIQIEKKSDGSTLAVLQGGRQIGELKPRCSITIDVDGQQMTIAWSGEEQRKYVYYVGQQSEVLVSNDPQADIETTNARFSLRKHRGQWVVIPDDDAPLFLNGVQLSDAVSLRNGDVLLCPYMQFVFIEEDLLAVTSSEEVVSSLTETMPPLSEMKKKYPMYRRTPRMIYELPSDKVSISFPSQEGDGDPRGLWLMVLPPVMMLLVIGAVALIQPRGVFIMISIAMFATTIVTSTAQYMREKKARQMRKEKRRRIYTNYLEQKREELQALSEKQRNVLYYHFPSFEQMKSFVMQVNSRIWERTAESADFLHVRIGTADVPATYEVSVSMGDLANREIDDLLEQAQHIAKVYQTVKHVPLPIDVSHGAIGMVGKRSIVNGEIEQLVGQIAFFHSYHDVRFVAIFSEDDYKHWEWMKWLPHFQLPNSFAKGLIYNEQTRDQLLSSIYEMLRERALDEEKDKKRFSPHFVFIVADRSLIAEHVILEYLEEKNEDIGISVIFASETKESLTENVHTLVQYINEREGEIVIQHRKAAHIPFQLDEHSTEGNESFARMLRSLNHQKGMSNSIPEKVTFLEMMQTRRANELQIVQNWLSCQTSRSLAVPIGLKGRNDVVELNLHEKAHGPHGLVAGTTGSGKSELLQTYILSLAVHFHPHEVAFLIIDYKGGGMAQPFKNMPHLLGTITNIHGSKNFSARALASINSELKKRQRLFDRYEVNHINDYMELYKQGKAEQPLPHLFLIADEFAELKSEEPDFIRELVSAARIGRSLGVHLILATQKPRGVIDEQIWSNARFRISLKMQDVNDSKEILRNGDAAAITVPGRAYLQVGNNEVYELFQSAWSGAPYVEEGVEAEDEIHIVTDLGLVPVSNVATDRKRSRQKPKTEIEMVVEQIIETQKQLNIEKLPSPWLPPLPPRLARPASVTAEANAFPIGLKDEPELQSQSDYFYQWLEDGNIGIFGSAGYGKSTTMMTLLLSFAGAYNPAQLHYYIFDFGNSALLPLRQLPHTADYFRLDDEKKIEKFIKFMKEEMEQRKQRFMEKEVSTIKLYNALSEEKLPIIIVALDNFDVVKEEMPDFETQLIQYARDGQSLGIFFIMTATRVSGIRPPLMNNLKTKIVHYFIDSSEKFSLIGRTPYDVDPIPGRALIKKDNAALTQIYLPADGEDDIEVLENVKREMERLKEVYQHIPKPKPIPMLPPRLSMSVFTNTYVQHRASGFIPVGLDEQTVRPVAINMRTDPHCLIVGQSRKGKTNVVKVILESLLVQEPESIGLLDGIDRGLAGYANRDDITYIEAKERLAQWLNEADAVLQQREREYIQAVNENRATTLAWPPVVFVVDSLLRLQQETDSIMQGRIANMMKQYSHLGFHVFVAGNANEFVKGFDALTAELKQIRQAILVTKKSEQSLFALPFTRNEQEIEPGFGYFVVGGKDQKIQIPKVE
notes: also called full-length EssC; full-length recombinant protein; source: E. coli LEMO21(DE3), membranes solubilized with DDM, purified (His-Trap, SEC on Superdex 200 with 0.03% DDM)
Q: Which “stoichiometry N” value [3] does the source give for B1 here?
A: Its value is ~6.
